Values of other authors as cited in patent US20100240621A1, “TOPICAL PHARMACEUTICAL COMPOSITION FOR THE COMBINATION OF FUSIDIC ACID AND A CORTICOSTEROID” (priority 2007, published 2010).

Experiments:
[1] = test system: oxacillin-resistant staphylococcus aureus; conditions: at a concentration of 2 mg/L
[2] = test system: staphylococcus epidermidis; conditions: at 4 mg/L
[3] = test system: oxacillin-sensitive staphylococcus aureus; conditions: at a concentration of 0.12 mg/L
[4] = solution, cream, and ointment formulations
[5] = in vivo

applied dose entering the circulation [5]	Structure (SMILES)	concentration at which 90% of organisms inhibited (most Bacteroides species) [mg/L]	oxacillin-resistant staphylococcus aureus inhibited [1]	staphylococcus epidermidis inhibited [2] [%]	concentration at which 90% of organisms inhibited (Clostridium species) [mg/L]	concentration at which 90% of organisms inhibited (Peptococcus species) [mg/L]	oxacillin-sensitive staphylococcus aureus inhibited [3] [%]	concentration at which 90% of organisms inhibited (Propionibacterium Danes) [mg/L]	potency class by vasoconstrictor assay [4]
	CC(=O)O[C@H]1C[C@@]2(C)[C@@H](C[C@@H](O)[C@H]3[C@@]4(C)CC[C@@H](O)[C@@H](C)[C@@H]4CC[C@@]32C)/C1=C(\CCC=C(C)C)C(=O)O [Fusidic acid]	≤ 2	At least 99%	99	≤ 2	≤ 2	100	≤ 2	
less than 6%	CCC(=O)O[C@]1(C(=O)CCl)[C@@H](C)C[C@H]2[C@@H]3C[C@H](F)C4=CC(=O)C=C[C@]4(C)[C@@]3(F)[C@@H](O)C[C@@]21C [Halobetasol propionate]								super high-potency
